This note sets out measurements from patent publication US9663530B2, “5-oxa-2-azabicyclo[2.2.2]OCTAN-4-yl and 5-oxa-2-azabicyclo[2.2.1]heptan-4-yl derivatives” (Hoffmann-La Roche Inc., priority 2014, dated 2017).

In one assay the target is mouse TAAR1 (Mus musculus (Mouse), UniProt Q923Y8). Kind of assay: Radioligand binding assay on mouse TAAR1. The note with it: mouse TAAR1 (first value of the cell); membranes of HEK-293 cells stably expressing mouse TAAR1; read-out: Ki (μM) mouse/rat. As to the method: (§1) Construction of TAAR Expression Plasmids and Stably Transfected Cell Lines
mouse TAAR1, sequence (Q923Y8 whole entry): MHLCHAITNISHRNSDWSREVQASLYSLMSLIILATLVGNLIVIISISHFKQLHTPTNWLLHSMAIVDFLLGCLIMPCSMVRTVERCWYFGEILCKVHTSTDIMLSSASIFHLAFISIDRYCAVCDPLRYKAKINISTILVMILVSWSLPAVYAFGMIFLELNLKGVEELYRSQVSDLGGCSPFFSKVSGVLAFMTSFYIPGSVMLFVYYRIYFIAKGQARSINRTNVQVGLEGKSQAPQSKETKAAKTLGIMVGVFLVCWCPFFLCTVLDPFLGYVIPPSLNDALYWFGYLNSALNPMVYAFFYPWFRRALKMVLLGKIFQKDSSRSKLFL
(§2) For the construction of expression plasmids the coding sequences of human, rat and mouse TAAR 1 were amplified from genomic DNA essentially as described by Lindemann et al.. The Expand High Fidelity PCR System (Roche Diagnostics) was used with 1.5 mM Mg^2+ and purified PCR products were cloned into pCR2.1-TOPO cloning vector (Invitrogen) following the instructions of the manufacturer. PCR products were subcloned into the pIRESneo2 vector (BD Clontech, Palo Alto, Calif.), and expression vectors were sequence verified before introduction in cell lines.
(§3) HEK293 cells (ATCC # CRL-1573) were cultured essentially as described by Lindemann et al. (2005). For the generation of stably transfected cell lines HEK293 cells were transfected with the pIRESneo2 expression plasmids containing the TAAR coding sequences (described above) with Lipofectamine 2000 (Invitrogen) according to the instructions of the manufacturer, and 24 hrs post transfection the culture medium was supplemented with 1 mg/ml G418 (Sigma, Buchs, Switzerland). After a culture period of about 10 d clones were isolated, expanded and tested for responsiveness to trace amines (all compounds purchased from Sigma) with the cAMP Biotrak Enzyme immunoassay (EIA) System (Amersham) following the non-acetylation EIA procedure provided by the manufacturer.
Radioligand Binding Assay on Mouse TAAR1
(§4) Membrane Preparation and Radioligand Binding.
HEK-293 cells stably expressing mouse TAAR1 were maintained at 37° C. and 5% CO2 in DMEM high glucose medium, containing fetal calf serum (10%, heat inactivated for 30 min at 56° C.), penicillin/streptomycin (1%), and 375 μg/ml geneticin (Gibco). Cells were released from culture flasks using trypsin/EDTA, harvested, washed twice with ice-cold PBS (without Ca^2+and Mg^2+), pelleted at 1,000 rpm for 5 min at 4° C., frozen and stored at −80° C. Frozen pellets were suspended in 20 ml HEPES-NaOH (20 mM, pH 7.4) containing 10 mM EDTA and homogenized with a Polytron (PT 6000, Kinematica) at 14,000 rpm for 20 s. The homogenate was centrifuged at 48,000×g for 30 min at 4° C. Subsequently, the supernatant was removed and discarded, and the pellet resuspended in 20 ml HEPES-NaOH (20 mM, pH 7.4) containing 0.1 mM EDTA using the Polytron (20 s at 14,000 rpm). This procedure was repeated and the final pellet resuspended in HEPES-NaOH containing 0.1 mM EDTA and homogenized using the Polytron. Typically, aliquots of 2 ml membrane portions were stored at −80° C. With each new membrane batch the dissociation constant (Kd) was determined via a saturation curve. The TAAR1 radioligand ^3[H]-(S)-4-[(ethyl-phenyl-amino)-methyl]-4,5-dihydro-oxazol-2-ylamine (described in WO 2008/098857) was used at a concentration equal to the calculated Kd value, that was usually around 0.7 nM, resulting in the binding of approximately 0.5% of the radioligand and a specific binding representing approximately 70% of the total binding. Nonspecific binding was defined as the amount of ^3[H]-(S)-4-[(ethyl-phenyl-amino)-methyl]-4,5-dihydro-oxazol-2-ylamine bound in the presence of 10 μM unlabeled ligand. All compounds were tested at a broad range of concentrations ([…]) in duplicates. The test compounds (20 […]μl/well) were transferred into a 96 deep well plate (TreffLab), and 180 μl of HEPES-NaOH (20 mM, pH 7.4) containing MgCl2 (10 mM) and CaCl2 (2 mM) (binding buffer), 300 μl of the radioligand ^3[H]-(S)-4-[(ethyl-phenyl-amino)-methyl]-4,5-dihydro-oxazol-2-ylamine at a concentration of 3.3×Kd in nM and 500 μl of the membranes (resuspended at […]) added. The 96 deep well plates were incubated for 1 hr at 4° C. Incubations were terminated by rapid filtration through Unifilter-96 plates (Packard Instrument Company) and glass filters GF/C (Perkin Elmer) presoaked for 1 hr in polyethylenimine (0.3%) and washed 3 times with 1 ml of cold binding buffer. […]

A further assay has as its target rat TAAR1 (Rattus norvegicus (Rat), UniProt Q923Y9). Description: Radioligand binding assay on rat TAAR1. The note with it: rat TAAR1 (second value of the cell); membranes of HEK-293 cells stably expressing rat TAAR1; read-out: Ki (μM) mouse/rat. As to the method: as §1, §2, §3
Radioligand Binding Assay on Rat TAAR1
as §4
HEK-293 cells stably expressing rat TAAR1 were maintained at 37° C. and 5% CO2 in DMEM high glucose medium, containing fetal calf serum (10%, heat inactivated for 30 min at 56° C.), penicillin/streptomycin (1%), and 375 μg/ml geneticin (Gibco). Cells were released from culture flasks using trypsin/EDTA, harvested, washed twice with ice-cold PBS (without Ca^2+ and Mg^2+), pelleted at 1,000 rpm for 5 min at 4° C., frozen and stored at −80° C. Frozen pellets were suspended in 20 ml HEPES-NaOH (20 mM, pH 7.4) containing 10 mM EDTA and homogenized with a Polytron (PT 6000, Kinematica) at 14,000 rpm for 20 s. The homogenate was centrifuged at 48,000×g for 30 min at 4° C. Subsequently, the supernatant was removed and discarded, and the pellet resuspended in 20 ml HEPES-NaOH (20 mM, pH 7.4) containing 0.1 mM EDTA using the Polytron (20 s at 14,000 rpm). This procedure was repeated and the final pellet resuspended in HEPES-NaOH containing 0.1 mM EDTA and homogenized using the Polytron. Typically, aliquots of 2 ml membrane portions were stored at −80° C. With each new membrane batch the dissociation constant (Kd) was determined via a saturation curve. […] Nonspecific binding was defined as the amount of ^3[H]-(S)-4-[(ethyl-phenyl-amino)-methyl]-4,5-dihydro-oxazol-2-ylamine bound in the presence of 10 μM unlabeled ligand. All compounds were tested at a broad range of concentrations ([…]) in duplicates. The test compounds (20 […]μl/well) were transferred into a 96 deep well plate (TreffLab), and 180 μl of HEPES-NaOH (20 mM, pH 7.4) containing MgCl2 (10 mM) and CaCl2 (2 mM) (binding buffer), 300 μl of the radioligand ^3[H]-(S)-4-[(ethyl-phenyl-amino)-methyl]-4,5-dihydro-oxazol-2-ylamine at a concentration of 3.3×Kd in nM and 500 μl of the membranes (resuspended at 50 μg protein per ml) added. The 96 deep well plates were incubated for 1 hr at 4° C. Incubations were terminated by rapid filtration through Unifilter-96 plates (Packard Instrument Company) and glass filters GF/C (Perkin Elmer) presoaked for 1 hr in polyethylenimine (0.3%) and washed 3 times with 1 ml of cold binding buffer. After addition of 45 μl of Microscint 40 (PerkinElmer) the Unifilter-96 plate was sealed and after 1 hr the ratioactivity counted using a TopCount Microplate Scintillation Counter (Packard Instrument Company).

Molecules are shown by their SMILES.

rat TAAR1, sequence (Q923Y9 whole entry): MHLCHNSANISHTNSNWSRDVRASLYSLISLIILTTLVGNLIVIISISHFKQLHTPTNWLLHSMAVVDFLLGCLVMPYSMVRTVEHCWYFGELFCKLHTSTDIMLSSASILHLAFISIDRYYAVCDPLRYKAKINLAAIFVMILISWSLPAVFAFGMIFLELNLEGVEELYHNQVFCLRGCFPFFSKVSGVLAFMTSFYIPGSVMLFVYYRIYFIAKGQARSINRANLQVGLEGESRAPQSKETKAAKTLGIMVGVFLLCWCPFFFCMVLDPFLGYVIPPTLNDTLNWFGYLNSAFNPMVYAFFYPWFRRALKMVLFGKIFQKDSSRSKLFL

For `O=C(Nc1ccc(C[C@]23CN[C@H](CO2)C3)cc1)c1ccc(Cl)cc1` [Example 15, 4-Chloro-N-[4-[[(1S,4S)-5-oxa-2-azabicyclo[2.2.1]heptan-4-yl]methyl]phenyl]benzamide], the figures for the Ki at mouse TAAR1 and on rat TAAR1 were 0.0853 µM and 0.0505 µM, respectively.
For `O=C(Nc1ccc(C23CCC(CO2)NC3)cc1)c1ccc(Cl)cc1` (racemic) [Example 5, (RS)-4-Chloro-N-[4-(5-oxa-2-azabicyclo[2.2.2]octan-4-yl)phenyl]benzamide] the same measures were 0.0028 µM and 0.662 µM.
On the same counts, the results for `CCc1ncc(C(=O)Nc2ccc(C[C@@]34CN[C@@H](CO3)C4)cc2)cn1` [Example 50, 2-Ethyl-N-[4-[[(1R,4R)-5-oxa-2-azabicyclo[2.2.1]heptan-4-yl]methyl]phenyl]pyrimidine-5-carboxamide] are 0.226 µM and 1.24 µM.
Consider `O=C(Nc1ccc([C@@]23CN[C@@H](CO2)C3)cc1)c1cccc(Cl)c1` [Example 55, 3-Chloro-N-[4-[(1R,4S)-5-oxa-2-azabicyclo[2.2.1]heptan-4-yl]phenyl]benzamide], for which the figures for the Ki on mouse TAAR1 and on rat TAAR1 were 0.0036 µM and 0.964 µM, respectively.
On the same counts, the results for `O=C(Nc1ccc(C23CCC(CO2)NC3)cc1)c1ccc(OCC(F)(F)F)nc1` (racemic) [Example 13, (RS)—N-[4-(5-Oxa-2-azabicyclo[2.2.2]octan-4-yl)phenyl]-6-(2,2,2-trifluoroethoxy)pyridine-3-carboxamide] are 0.0304 µM and 0.624 µM.
On the same counts, the results for `Clc1ccc(Nc2ccc(C[C@]34CN[C@H](CO3)C4)cc2)nc1` [Example 30, 5-Chloro-N-[4-[[(1S,4S)-5-oxa-2-azabicyclo[2.2.1]heptan-4-yl]methyl]phenyl]pyridin-2-amine] are 2.55 µM and 0.621 µM.
On the same counts, the results for `O=C(Nc1ccc(C[C@]23CN[C@H](CO2)C3)cc1)c1[nH]nc(C2CC2)c1Cl` [Example 29, 4-Chloro-3-cyclopropyl-N-[4-[[(1 S,4S)-5-oxa-2-azabicyclo[2.2.1]heptan-4-yl]methyl]phenyl]-1H-pyrazole-5-carboxamide] are 0.476 µM and 0.633 µM.
In the case of `Clc1ccc(Nc2ccc(C[C@@]34CN[C@@H](CO3)C4)cc2)nc1` [Example 42, 5-Chloro-N-[4-[[(1R,4R)-5-oxa-2-azabicyclo[2.2.1]heptan-4-yl]methyl]phenyl]pyridin-2-amine], the Ki on mouse TAAR1 turned out to be 0.0158 µM; at rat TAAR1, 0.355 µM.
For `O=C(Nc1ccc(C[C@]23CN[C@H](CO2)C3)cc1)Nc1cccc(C(F)(F)F)c1` [Example 10, 1-[4-[[(1S,4S)-5-Oxa-2-azabicyclo[2.2.1]heptan-4-yl]methyl]phenyl]-3-[3-(trifluoromethyl)phenyl]urea], the Ki stood at 0.365 µM at mouse TAAR1 and 0.0209 µM at rat TAAR1.
On the same counts, the results for `O=C(Nc1ccc(C[C@@]23CN[C@@H](CO2)C3)cc1)c1cccc(Cl)c1` [Example 39, 3-Chloro-N-[4-[[(1R,4R)-5-oxa-2-azabicyclo[2.2.1]heptan-4-yl]methyl]phenyl]benzamide] are 0.0022 µM and 0.0551 µM.
On the same counts, the results for `O=C(Nc1ccc(C[C@]23CN[C@H](CO2)C3)cc1)c1ccc(OCC(F)(F)F)nc1` [Example 27, N-[4-[[(1 S,4S)-5-Oxa-2-azabicyclo[2.2.1]heptan-4-yl]methyl]phenyl]-6-(2,2,2-trifluoroethoxy)pyridine-3-carboxamide] are 0.0552 µM and 0.013 µM.
For `FC(F)(F)c1nccc(Nc2ccc(C34CCC(CO3)NC4)cc2)n1` (centres unmarked) [Example 36, N-[4-(5-Oxa-2-azabicyclo[2.2.2]octan-4-yl)phenyl]-2-(trifluoromethyl)pyrimidin-4-amine], the results for the Ki on mouse TAAR1 and on rat TAAR1 were 0.0471 µM and 1.97 µM, respectively.
On the same counts, the results for `O=C(Nc1ccc(C23CCC(CO2)NC3)cc1)c1cccc(Cl)c1` (centres unmarked) [Example 6, 3-Chloro-N-[4-(5-oxa-2-azabicyclo[2.2.2]octan-4-yl)phenyl]benzamide] are 0.0044 µM and 0.797 µM.
